From patent publication US12467038B2, “Methods of culturing human pluripotent cells” (Hadasit Medical Research Services and Development Ltd., priority 2019, dated 2025)

Assays:
[1] = tested on: FGF5-GFP hPSC reporter clones (HES-1); test: FACS analysis of FGF5-GFP expression in hPS-FGF5 reporter clones; format: cell-based, human
Protocol: (§1) hPSC culture—hPSC culture—hPSC lines HES-1, HES-2 (10), HADC100, HADC102 (36) and H7 (9) were cultured on human foreskin feeders in serum free medium as described (30, 87). hPSC culturing in suspension was performed as reported (31) with minor modifications of the culture medium that was composed of Neurobasal medium, 14% KO-SR, L-glutamine 2 mM, 50 units/ml penicillin, 50 μg/ml streptomycin, 1% nonessential amino acids (all from Invitrogen, Carlsbad, Calif., USA). The medium was supplemented with FGF2 20 ng/ml, and activin A 25 ng/ml (both from Peprotech, Rocky Hill, N.J., USA), and laminin 0.5 μg/ml (Sigma-Aldrich, St. Louis, Mo., USA). For hPSC culturing on mouse LN111, 3-D Culture Matrix Laminin I (CULTREX, TREVIGEN, #3446-005-01, Gaithersburg, Md., USA) was diluted to a concentration of 1 mg/ml. Tissue culture dishes were coated with LN111, incubated overnight at 37° C. to promote matrix gelling, and washed with PBS. hPSCs were cultured on LN111 in a chemically defined medium composed of DMEM/F12, B27 supplement (1:50), N2 supplement (1:100) 2 mM L-glutamine, 50 units/ml penicillin, 50 μg/ml streptomycin (all from Invitrogen), and supplemented with 20 ng/ml bFGF (Peprotech). The cells were cultured in 5% CO2, 5% O2 incubator They were passaged every 7 days as small clusters by treatment with 1 mg/ml collagenase type IV (Invitrogen), and plated in a medium containing 5 μM ROCK inhibitor. hPSC culture under naïve conditions was performed using the 5iLFA protocol (20).
Generation of FGF5 reporter cell lines—a 3 kb fragment of human FGF5 promoter (GeneBank accession number NT_016354) was amplified from HES-1 genomic DNA using Expand High Fidelity PCR System (Roche Applied Science, Penzberg, Germany) with primers CG ? TTGCTTTCCTGGCTGGGAG (SEQ ID NO: 1) (EcoRI) and CA ? AGCCTCGGGGAAGAGAAGG (SEQ ID NO: 2) (ApaI). […] Single colonies were picked, replated, and analyzed for the integrity of the integrated reporter vector. […]

[2] = tested on: hPSCs; test: Extended propagation and karyotype analysis; format: cell-based, human
Protocol: as §1
Alkaline phosphatase activity detection and karyotyping—Detection of alkaline phosphatase activity was performed on hPSC colonies using the Alkaline Phosphatase Staining Kit II (Stemgent, Cambridge, Mass., USA) according to the manufacturer's instructions. Karyotype analysis, was performed on 3-4 day hPSC colonies.

Q: Which results are given for “LN111: mouse LN111, 3-D Culture Matrix Laminin I (CULTREX, TREVIGEN), coating of culture dishes”?
A: percentage of FGF5-GFP expressing cells ([1]; reporter clone #1 cultured on LN111): 86%±2; percentage of FGF5-GFP expressing cells ([1]; reporter clone #2 cultured on LN111): 90%±1; percentage of FGF5-GFP expressing cells ([1]; reporter clone #3 cultured on LN111): 79%±3; extended undifferentiated propagation ([2]; HADC100): 6 passages; extended undifferentiated propagation ([2]; HADC102): 8 passages; passages propagated while maintaining a normal karyotype ([2]; HES-1 cells): at least 10 passages
